Reference: US11498928B2, “Macrocyclic spiroethers as Mcl-1 inhibitors” (ASCENTAGE PHARMA (SUZHOU) CO., LTD., priority 2019, dated 2022)

How the values were obtained:
[1] = biological target: T1, Mcl-1 protein (residues 171-323) (Homo sapiens, UniProt Q07820); assay: Inhibition of Mcl-1 by fluorescence polarization (FP) competitive binding assay with FAM-Bid tracer; conditions: 2 nM FAM-Bid, 20 nM Mcl-1, 30 min
T1 construct: Tag-free Mcl-1 protein (residues 171-323) was used in the FP assay
Summary of the method: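 Ten-point compound titrations compete against 2 nM fluorescein-Bid for 20 nM Mcl-1 (171-323, untagged). Incubation 30 min RT in PBS buffer with BGG and Triton, 5% DMSO final. mP reduction fitted by sigmoidal nonlinear regression for IC50.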

OPM-2 cells = assay: Cell viability assay (OPM-2 cells), CCK-8; type: cell-based; conditions: Homo sapiens, OPM-2, 24 h, 5% FBS
Summary of the method: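 Viability read by CCK-8 absorbance (450 nm, 4 h reagent incubation) after 24 h compound exposure of 20000 OPM-2 cells per well at 37 °C. IC50 fitted by nonlinear regression on vehicle-normalized signal.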

NCI-H929 cells = assay: Cell viability assay (NCI-H929 cells), CCK-8; type: cell-based; conditions: Homo sapiens, NCI-H929, 24 h, 5% FBS
Summary of the method: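 Viability of NCI-H929 cells was measured using the Cell Counting Kit-8. After 24 hrs of compound exposure, 10 μL of CCK-8 solution per well was incubated for 1-4 hours, and absorbance was read at 450 nm on a BioTek Synergy 1MF. Readings were normalized to vehicle (DMSO) cells, and IC50 values were derived by nonlinear regression in GraphPad Prism 6.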

T1 sequence (Q07820 171-323): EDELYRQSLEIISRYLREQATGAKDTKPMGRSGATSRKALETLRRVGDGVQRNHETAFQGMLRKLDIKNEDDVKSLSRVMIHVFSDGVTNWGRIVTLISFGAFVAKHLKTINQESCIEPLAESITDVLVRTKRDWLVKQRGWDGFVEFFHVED

Row | IC50 [1] | IC50 (NCI-H929 cells) | Compound | IC50 (OPM-2 cells)
1 | 11 nM | 17 nM | CCO[C@@]1(CN2CCN3CCOC[C@@H]3C2)C2=C[C@@H](C2)[C@H](C)[C@@H](C)S(=O)(=O)NC(=O)c2ccc3c(c2)N(C[C@@H]2CC[C@H]21)C[C@@]1(CCCc2c1ccc(Cl)c2F)CO3 [compound 44, (1S,11′R,12′S,13′R,16′R,16a′R,18a′R,E)-6-chloro-16′-ethoxy-5-fluoro-16′-(((S)-hexahydropyrazino[2,1-c][1,4]oxazin-8(1H)-yl)methyl)-11′,12′-dimethyl-3,4,12,′13′,16′,16a′,17′,18′,18a′,19′-decahydro-1′H,2H,3′H,11′H-spiro[naphthalene-1,2′-[5,7]etheno[13,15]methanocyclobuta[i][1,4]oxazepino[3,4-f][1]thia[2,7]diazacyclohexadecin]-8′(9′H)-one 10′,10′-dioxide] | 48 nM
2 | 15 nM | 46 nM | CCO[C@@]1(CN2CCN3CCOC[C@H]3C2)C2=C[C@@H](C2)[C@H](C)[C@@H](C)S(=O)(=O)NC(=O)c2ccc3c(c2)N(C[C@@H]2CC[C@H]21)C[C@@]1(CCCc2c1ccc(Cl)c2F)CO3 [compound 45, (1S,11′R,12′S,13′R,16′R,16a′R,18a′R,E)-6-chloro-16′-ethoxy-5-fluoro-16′-(((R)-hexahydropyrazino[2,1-c][1,4]oxazin-8(1H)-yl)methyl)-11′,12′-dimethyl-3,4,12,′13′,16′,16a′,17′,18′,18a′,19′-decahydro-1′H,2H,3′H,11′H-spiro[naphthalene-1,2′-[5,7]etheno[13,15]methanocyclobuta[i][1,4]oxazepino[3,4-f][1]thia[2,7]diazacyclohexadecin]-8′(9′H)-one 10′,10′-dioxide] | 105 nM
3 | 13 nM | 200 nM | CCO[C@@]1(C(=O)N2CCN3CCOC[C@@H]3C2)C2=C[C@@H](C2)[C@H](C)[C@@H](C)S(=O)(=O)NC(=O)c2ccc3c(c2)N(C[C@@H]2CC[C@H]21)C[C@@]1(CCCc2c1ccc(Cl)c2F)CO3 [compound 46, (1S,11′R,12′S,13′R,16′R,16a′R,18a′R,E)-6-chloro-16′-ethoxy-5-fluoro-11′,12′-dimethyl-16′-((S)-octahydropyrazino[2,1-c][1,4]oxazine-8-carbonyl)-3,4,12′,13′,16′,16a′,17′,18′,18a′,19′-decahydro-1′H,2H,3′H,11′H-spiro[naphthalene-1,2′-[5,7]etheno[13,15]methanocyclobuta[i][1,4]oxazepino[3,4-f][1]thia[2,7]diazacyclohexadecin]-8′(9′H)-one 10′,10′-dioxide] | 325 nM
4 | 13 nM | 5.8 nM | C[C@@H]1[C@@H](C)S(=O)(=O)NC(=O)c2ccc3c(c2)N(C[C@@H]2CC[C@H]2[C@](O)(CN2CCN4CCOC[C@@H]4C2)C2=C[C@H]1C2)C[C@@]1(CCCc2c1ccc(Cl)c2F)CO3 [compound 47, (1S,11′R,12′S,13′R,16′R,16a′R,18a′R,E)-6-chloro-5-fluoro-16′-(((S)-hexahydropyrazino[2,1-c][1,4]oxazin-8(1H)-yl)methyl)-16′-hydroxy-11′,12′-dimethyl-3,4,12,′13′,16′,16a′,17′,18′,18a′,19′-decahydro-1′H,2H,3′H,11′H-spiro[naphthalene-1,2′-[5,7]etheno[13,15]methanocyclobuta[i][1,4]oxazepino[3,4-f][1]thia[2,7]diazacyclohexadecin]-8′(9′H)-one 10′,10′-dioxide] | 32 nM
5 | 18 nM | 28 nM | C[C@@H]1[C@@H](C)S(=O)(=O)NC(=O)c2ccc3c(c2)N(C[C@@H]2CC[C@H]2[C@](O)(CN2CCN4CCOC[C@H]4C2)C2=C[C@H]1C2)C[C@@]1(CCCc2c1ccc(Cl)c2F)CO3 [compound 48, (1S,11′R,12′S,13′R,16′R,16a′R,18a′R,E)-6-chloro-5-fluoro-16′-(((R)-hexahydropyrazino[2,1-c][1,4]oxazin-8(1H)-yl)methyl)-16′-hydroxy-11′,12′-dimethyl-3,4,12,′13′,16′,16a′,17′,18′,18a′,19′-decahydro-1′H,2H,3′H,11′H-spiro[naphthalene-1,2′-[5,7]etheno[13,15]methanocyclobuta[i][1,4]oxazepino[3,4-f][1]thia[2,7]diazacyclohexadecin]-8′(9′H)-one 10′,10′-dioxide] | 69 nM
6 | 11 nM | 12 nM | CO[C@@]1(CN2CCN(C(C)=O)CC2)C2=C[C@@H](C2)[C@H](C)[C@@H](C)S(=O)(=O)NC(=O)c2ccc3c(c2)N(C[C@@H]2CC[C@H]21)C[C@@]1(CCCc2c1ccc(Cl)c2F)CO3 [compound 49] | 186 nM
7 | 11 nM | 11 nM | CO[C@@]1(CN2CCN(C3COC3)CC2)C2=C[C@@H](C2)[C@H](C)[C@@H](C)S(=O)(=O)NC(=O)c2ccc3c(c2)N(C[C@@H]2CC[C@H]21)C[C@@]1(CCCc2c1ccc(Cl)c2F)CO3 [compound 50] | 28 nM
8 | 7.4 nM | 6 nM | CO[C@@]1(CN2CCN3CCOC[C@@H]3C2)C2=C[C@@H](C2)[C@H](C)[C@@H](C)S(=O)(=O)NC(=O)c2ccc3c(c2)N(C[C@@H]2CC[C@H]21)C[C@@]1(CCCc2c1ccc(Cl)c2F)CO3 [compound 51, (1S,11′R,12′S,13′R,16′R,16a′R,18a′R,E)-6-chloro-5-fluoro-16′-(((S)-hexahydropyrazino[2,1-c][1,4]oxazin-8(1H)-yl)methyl)-16′-methoxy-11′,12′-dimethyl-3,4,12′,13′,16′,16a′,17′,18′,18a′,19′-decahydro-1′H,2H,3′H,11′H-spiro[naphthalene-1,2′-[5,7]etheno[13,15]methanocyclobuta[i][1,4]oxazepino[3,4-f][1]thia[2,7]diazacyclohexadecin]-8′(9′H)-one 10′,10′-dioxide] | 14 nM
9 | 7 nM | 19 nM | CNC[C@]1(OC)C2=C[C@@H](C2)[C@H](C)[C@@H](C)S(=O)(=O)NC(=O)c2ccc3c(c2)N(C[C@@H]2CC[C@H]21)C[C@@]1(CCCc2c1ccc(Cl)c2F)CO3 [compound 52, (1S,11′R,12′S,13′R,16′R,16a′R,18a′R,E)-6-chloro-5-fluoro-16′-methoxy-11′,12′-dimethyl-16′-((methylamino)methyl)-3,4,12′,13′,16′,16a′,17′,18′,18a′,19′-decahydro-1′H,2H,3′H,11′H-spiro[naphthalene-1,2′-[5,7]etheno[13,15]methanocyclobuta[i][1,4]oxazepino[3,4-f][1]thia[2,7]diazacyclohexadecin]-8′(9′H)-one 10′,10′-dioxide] | 23 nM
10 | 5.7 nM | 49 nM | CO[C@@]1(CN(C)C(C)=O)C2=C[C@@H](C2)[C@H](C)[C@@H](C)S(=O)(=O)NC(=O)c2ccc3c(c2)N(C[C@@H]2CC[C@H]21)C[C@@]1(CCCc2c1ccc(Cl)c2F)CO3 [compound 53, N-(((1S,11′R,12′S,13′R,16′R,16a′R,18a′R,E)-6-chloro-5-fluoro-16′-methoxy-11′,12′-dimethyl-10′,10′-dioxido-8′-oxo-3,4,8′,9′,12′,13′,16′,16a′,17′,18′,18a′,19′-dodecahydro-1′H,2H,3′H,11′H-spiro[naphthalene-1,2′-[5,7]etheno[13,15]methanocyclobuta[i][1,4]oxazepino[3,4-f][1]thia[2,7]diazacyclohexadecin]-16′-yl)methyl)-N-methylacetamide] | 57 nM
11 | 15 nM | 4.9 nM | CO[C@@]1(CN2CCN3CCOC[C@@H]3C2)C2=C[C@@H](C2)[C@H](C)[C@@H](C)S(=O)(=O)NC(=O)c2ccc3c(n2)N(C[C@@H]2CC[C@H]21)C[C@@]1(CCCc2c1ccc(Cl)c2F)CO3 [compound 54, (1S,11′R,12′S,13′R,16′R,16a′R,18a′R,E)-6-chloro-5-fluoro-16′-(((S)-hexahydropyrazino[2,1-c][1,4]oxazin-8(1H)-yl)methyl)-16′-methoxy-11′,12′-dimethyl-3,4,12′,13′,16′,16a′,17′,18′,18a′,19′-decahydro-1′H,2H,3′H, 11′H-spiro[naphthalene-1,2′-[5,7]etheno[13,15]methanocyclobuta[i][1,4]oxazepino[3,4-f][1]thia[2,5,7]triazacyclohexadecin]-8′(9′H)-one 10′,10′-dioxide] | 56 nM
12 | 13 nM | 1000 nM | CC(C)[C@@H]1C2=C[C@@H](C2)[C@H](C)[C@@H](C)S(=O)(=O)NC(=O)c2ccc3c(c2)N(C[C@@H]2CC[C@H]21)C[C@@]1(CCCc2c1ccc(Cl)c2F)CO3 [compound 55, (1S,11′R,12′S,13′R,16′S,16a′S,18a′R)-6-chloro-5-fluoro-16′-isopropyl-11′,12′-dimethyl-3,4,12′,13′,16′,16a′,17′,18′,18a′,19′-decahydro-1′H,2H,3′H,11′H-spiro[naphthalene-1,2′-[5,7]etheno[13,15]methanocyclobuta[i][1,4]oxazepino[3,4-f][1]thia[2,7]diazacyclohexadecin]-8′(9′H)-one 10′,10′-dioxide] | 1010 nM
13 | 13 nM | 43 nM | C[C@@H]1[C@@H](C)S(=O)(=O)NC(=O)c2ccc3c(c2)N(C[C@@H]2CC[C@H]2[C@@H](N(C)C)C2=C[C@H]1C2)C[C@@]1(CCCc2c1ccc(Cl)c2F)CO3 [compound 57, (1S,11′R,12′S,13′R,16′R,16a′R,18a′R)-6-chloro-16′-(dimethylamino)-5-fluoro-11′,12′-dimethyl-3,4,12′,13′,16′,16a′,17′,18′,18a′,19′-decahydro-1′H,2H,3′H,11′H-spiro[naphthalene-1,2′-[5,7]etheno[13,15]methanocyclobuta[i][1,4]oxazepino[3,4-f][1]thia[2,7]diazacyclohexadecin]-8′(9′H)-one 10′,10′-dioxide] | 36 nM
